Results on 2 compounds are retold here after patent US20260109690A1, “HDAC6 INHIBITORS AND METHOD OF THEIR USE” (Baerenkraft Therapeutics, LLC., priority 2024, published 2026).

Each structure is given as a SMILES string. Where two headings read alike, the source gives them in different places.

For one data set, the target named is HDAC3 (Homo sapiens, UniProt O15379). Kind of data set: HDAC selectivity panel: HDAC3. The class given is biochemical.
The nature of data set [1]: Oral bioavailability and brain/CSF uptake study of compound I-8. The data set is classed as in vivo, male Swiss albino mice. The procedure:
Compound I-8 was evaluated for bioavailability, pharmacokinetics and brain/csf to plasma distribution in mouse plasma following oral and intravenous administration of compound I-8 in male Swiss albino mouse.
A total of 24 male Swiss albino mouse were allotted for the study, Animals were allotted to 2 groups containing 12 mice/group, on day of dosing all the animals were fasted 3 hours before dosing. The test formulation was administered as a single dose by intravenous and oral route via tail vein and oral gavage needle at a dose of 1 and 5 mg/kg with a dose volume of 5 and 10 mL/kg, respectively.
Approximately 0.1 mL of blood sample from each animal was collected via retro orbital at predetermined time points (3 animals/timepoint) in pre-labeled Eppendorf tubes containing anticoagulant. After blood collection at 2 h, 4 h and 6 h, CSF and whole brain was withdrawn, and brain tissue was homogenized as a terminal sampling. Blood samples were centrifuged at 10000 rpm for 5 min under refrigeration (2-4° C.) within 0.5 h to obtain plasma. The separated plasma samples were collected in pre labeled tubes within 60 min of separation and stored at −20° C. up to 24 h. Post 24 h sample collection, all plasma samples were transferred to deep freezer custodian to store below or at −70° C. until shipment.
Brain tissues were blotted and dried and then transferred to 15 mL falcon tubes. Initially all tissue samples were stored at −20±3° C. Later all brain tissue samples were homogenized with PBS at 1:4 ratio and the Brain homogenate was transferred to deep freezer (−70±10° C.) and stored until bioanalysis.
Mouse plasma, CSF and Brain homogenate concentrations were analyzed to quantify compound I-8 using a fit-for purpose LC-MS/MS method with LLOQ of 0.98 ng/mL. The PK parameters were evaluated using Phoenix WinNonlin® Ent-Version 8.3 by non-compartmental analysis.

Data set [2] relates to B6SJL.SOD1-G93A transgenic mouse model of amyotrophic lateral sclerosis. As to the kind of experiment: ALS mouse model: wire suspension test (inverted screen test). The data set is classed as in vivo, mice. As for the experimental part: Wire hang test was used to measure the muscle strength of animals. During the test, the animals were placed on the top of a wire lid of a housing cage. Then the lid was inverted and slightly shaken to ensure the grip of animal on the lid. Latency to fall(s) off the lid was recorded. A total of 3 trials were recorded and averaged to analyze the data. A cutoff time of 90 s was used to end the trial.
Note: Behavioral tests were performed once in two weeks, i.e. at week 10, 12, 14 and 16.

The next data set concerns Tg2576 AD Disease Mice. Kind of data set: Tg2576 study: Morris water maze test. The data set is classed as in vivo. Particulars: G3 Tg2576 mice, 50 mg/kg then 80 mg/kg from day 36 p.o.; 9th month, probe test. As for the experimental part: Mice were weighed and randomized into groups. All the test formulations were freshly administered to respective animals of each group as per body weight. Basal behavior of the animals was recorded and analyzed in open field, Y-Maze, and EPM. Post basal behavior, animals were treated with compound I-16 for the duration of 3 months (i.e., from 6 months until 9 months). During the treatment duration, animals were subjected to different behavioral tests such as OFT, Y-maze, and EPM at 7, 8 and 9 months. At the end of experiments (i.e., at 9 months) animals were subjected to Morris water maze test.
Animals were subjected to MWM to test spatial working memory. Animals were subjected to habituation, acquisition, and probe trial phase. On day 0, animals were habituated to the Morris water maze tank filled with water for a duration of 90 seconds. During the acquisition phase from day 1 to 4, animals were allowed to swim or search the hidden platform for a duration of 60 seconds. Animals were subjected to a total of 4 trials from 4 different positions each day. On the day of the probe test, animals were allowed to swim for a duration of 60 seconds without platform and time spent in the target quadrant was recorded. During the acquisition phase, latency to reach the platform was calculated.

Setting [3] is: male, Swiss albino, mouse, plasma, G1, intravenous 1 mg/kg.
[4] abbreviates: male, Swiss albino, mouse, plasma, G2, oral 5 mg/kg.
The mark [5] stands for this setting: male, Swiss albino, G1, intravenous 1 mg/kg, mouse plasma.
The mark [6] stands for this setting: male, Swiss albino, G2, oral 5 mg/kg, mouse plasma.

HDAC3, sequence (O15379 whole entry, species assumed): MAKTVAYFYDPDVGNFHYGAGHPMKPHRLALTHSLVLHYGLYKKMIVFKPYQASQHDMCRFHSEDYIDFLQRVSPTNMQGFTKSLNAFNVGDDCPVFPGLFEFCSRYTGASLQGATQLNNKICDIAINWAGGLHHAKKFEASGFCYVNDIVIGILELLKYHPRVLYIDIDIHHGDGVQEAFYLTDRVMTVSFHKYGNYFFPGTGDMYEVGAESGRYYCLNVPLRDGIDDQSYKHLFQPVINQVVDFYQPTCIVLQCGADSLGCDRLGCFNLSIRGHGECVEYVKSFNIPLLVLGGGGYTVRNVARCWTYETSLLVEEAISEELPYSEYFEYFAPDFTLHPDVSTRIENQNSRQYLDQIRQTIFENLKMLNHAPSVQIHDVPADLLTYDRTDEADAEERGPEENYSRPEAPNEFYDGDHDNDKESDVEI
HDAC3, sequence (Q9Y618 395-489 partner limits assumed, species assumed): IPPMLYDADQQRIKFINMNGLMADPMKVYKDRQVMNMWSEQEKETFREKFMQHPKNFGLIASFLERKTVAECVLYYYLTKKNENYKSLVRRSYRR

The IC50 is the concentration that inhibits the measured activity by half. Low values mean inhibition by little substance, high ones a need for much substance. As a reminder, the MRT is the average time that molecules of a dose stay in the body. What is called half-life is the time in which the quantity being followed falls by half. Lower therefore signals fast loss. Broadly, the Tmax is the time from dosing to the highest level. What is called bioavailability is dose-corrected exposure relative to a reference, in per cent. Usually AUC(0-inf) stands for total exposure, with the tail of the curve extrapolated. A low value points to less exposure. As usually defined, the AUC(0-t) is exposure summed from dosing to a finite time, without extrapolation to infinity. High values mean high exposure, low ones low exposure. The term Cmax denotes the highest concentration seen after dosing. On to `CC1CN(Cc2ccc(Nc3nccc(-c4ccc(C(=O)NO)cc4)n3)cc2F)CCO1` (racemic) [Compound I-8, 4-(2-((3-fluoro-4-((2-methylmorpholino)methyl)phenyl)amino)pyrimidin-4-yl)-N-hydroxybenzamide], for which, at HDAC3, the IC50 was determined as 990 nM. Besides, in data set [1] (intravenous 1 mg/kg), the “Steady state and central compartment volume of distribution” value is “very high”. Moreover, in data set [1] (male, Swiss albino, mouse, plasma, iv, 1 mg/kg, G1, intravenous 1 mg/kg), the clearance is about 328 mL/min/kg. In addition, the Vd in data set [1] (male, Swiss albino, mouse, plasma, iv, 1 mg/kg, G1, intravenous 1 mg/kg, read-out: Vd) came out at 171 L/kg; in data set [1] (male, Swiss albino, mouse, plasma, iv, 1 mg/kg, G1, intravenous 1 mg/kg, read-out: Vss), 188 L/kg. Also, the results for the MRT in data set [1] (setting [3]) and in data set [1] (setting [4]) were 3.28 h and 4.75 h, respectively. In data set [1] (setting [3]), this compound had a half-life of 6.03 h. Moreover, the Tmax in data set [1] (setting [4]) is 8 h. Further, the bioavailability in data set [1] (male, Swiss albino, mouse, plasma, G2, oral 5 mg/kg vs intravenous 1 mg/kg, read-out: % F (oral bioavailability)) is 53%. For the same compound, in data set [1] (setting [5]), the AUC(0-inf) worked out at 50.8 ng·h/mL. For the same compound, the results for the AUC(0-t) in data set [1] (setting [5]) and in data set [1] (setting [6]) were 27.1 ng·h/mL and 72.3 ng·h/mL, respectively. The C0 in data set [1] (setting [5]) came to 27.3 ng/mL. In addition, the Cmax in data set [1] (setting [6]) is 18.3 ng/mL. Also, the “lag phase in absorption” value in data set [1] (oral 5 mg/kg) is given as “no lag phase in absorption”. Besides, in data set [1] (oral 5 mg/kg), the systemic availability entry is given as “moderate to high systemic availability”. Moreover, the “Wire Suspension test latency to fall” value in data set [2] (G3 15 mg/kg p.o. QD, Week 10) was 49.70 ± 8.667 s; in data set [2] (G3 15 mg/kg p.o. QD, Week 12), 37.48 ± 9.92 s; in data set [2] (G3 15 mg/kg p.o. QD, Week 14), 19.22 ± 7.18 ^ seconds; in data set [2] (G3 15 mg/kg p.o. QD, Week 16), 3.71 ± 0.73 s; in data set [2] (G4 30 mg/kg (50 mg/kg from day 34) p.o. QD, Week 10) it was 60.38 ± 10.00 s; in data set [2] (G4 30 mg/kg (50 mg/kg from day 34) p.o. QD, Week 12), 45.46 ± 7.98 s. Besides, the “Wire Suspension test latency to fall” value in data set [2] (G4 30 mg/kg (50 mg/kg from day 34) p.o. QD, Week 14) was 28.13 ± 5.38 ^ seconds; in data set [2] (G4 30 mg/kg (50 mg/kg from day 34) p.o. QD, Week 16) it was 6.46 ± 1.58 s. The “latency to fall of the wire vs. G2” value in data set [2] (G3 15 mg/kg, week 14) is reported as “significant reduction in latency to fall of the wire”; in data set [2] (G4, week 14), “significant reduction in latency to fall of the wire”.

Turning to `C[C@@H]1CN(Cc2ccc(Nc3nccc(-c4ccc(C(=O)NO)cc4)n3)cc2F)CCO1` [Compound I-16, (R)-4-(2-((3-fluoro-4-((2-methylmorpholino)methyl)phenyl)amino)pyrimidin-4-yl)-N-hydroxybenzamide], in the data set with Tg2576 AD Disease Mice, the “Morris Water Maze time spent in NW (Target Quadrant)” value was 15.49 ± 1.80 s.
